{"source": "patent US9808496B2", "about": "“Use of a myrtle extract as an anti-biofilm agent against P. acnes” (PIERRE FABRE DERMO-COSMETIQUE, priority 2012, dated 2017)", "type_in_all_cases": "cell-based, Propionibacterium acnes", "key": {"[1]": {"tested_on": "P. acnes eryS strains and eryR strains", "test": "Erythromycin/myrtle extract on P. acnes biofilm, general conclusion over the strains", "procedure": "(§1) • Four Propionibacterium acnes strains were selected: Two Erythromycin-Resistant Strains (ERY R) • Propionibacterium acnes CIP 110371 • clinical isolate R4 Two Erythromycin-Sensitive Strains (ERY S) • Propionibacterium acnes CIP 53117T • clinical isolate B872 Protocol\n(§2) A titrated suspension of P. acnes (about 10^6 CFU/ml), in minimal broth allowing no bacterial growth, was deposited in the wells of a 24-well microplate.\n(§3) The microplates are placed under anaerobic conditions at 37±2° C. for 48 h, the time established for biofilm to form.\n(§4) After 48 h, the supernatant of each well is discarded and then the wells are rinsed. Erythromycin and myrtle extract at various concentrations are added for a contact time of 24 h on the adhered cells (72 hours of adhesion in total).\n(§5) After 72 h of adhesion: • planktonic cells are counted • adhered (sessile) cells are counted after rinsing the well and then scraping in tryptone salt"}, "[2]": {"tested_on": "two erythromycin-resistant strains (ERY R)", "test": "Bactericidal activity of erythromycin on isolated bacteria", "conditions": "1000 μg/ml", "procedure": "(§6) The erythromycin concentration selected is 1000 μg/ml."}, "[3]": {"tested_on": "P. acnes R4 (eryR)", "test": "Activity of the combination erythromycin/myrtle extract on P. acnes biofilm (24-well microplate)", "conditions": "erythromycin 1000 μg/ml alone, 24 h contact on 48 h biofilm", "procedure": "(§7) Myrtle extract is prepared according to example 2.\nas §1, §2, §3, §4, §6, §5\n(§8) Controls were prepared in parallel (adhered+planktonic cells) • 72 h biofilm control (with the medium changed at 48 h) • myrtle control at various concentrations (added after 48 h/24 h of contact) • 1000 μg/ml erythromycin control (added at 48 h/24 h of contact) • myrtle extract control at the concentrations tested\n(§9) For all the wells in contact with erythromycin, 1 ml of each dilution is filtered on a membrane (Microfil®, Millipore) and then the filter is rinsed three times with 50 ml of sterile distilled water. The membranes are deposited on Columbia agar+5% sheep blood. The plates are incubated at 37±2° C. under anaerobic conditions. After 72 h to 96 h of incubation, the colony forming units (CFUs) are counted.\n(§10) For all the biofilm controls and the myrtle extract alone, 100 μl of each dilution is inoculated by streaking on Columbia agar+5% sheep blood. The plates are incubated at 37±2° C. under anaerobic conditions. After 72 h to 96 h of incubation, the CFUs are counted. Results\n(§11) This test consisted in evaluating the activity of erythromycin (1000 μg/ml) combined with myrtle extract, at concentrations of 0.03%, 0.001% and 0.0001%.\n(§12) The results are expressed in log of the population counted."}, "[4]": {"tested_on": "P. acnes CIP 110371 (eryR)", "test": "Activity of the combination erythromycin/myrtle extract on P. acnes biofilm (24-well microplate)", "conditions": "erythromycin 1000 μg/ml alone, 24 h contact on 48 h biofilm, limit of detection 1.3 log", "procedure": "as §7, §1, §2, §3, §4, §6, §5, §8, §9, §10, §11, §12"}, "[5]": {"tested_on": "P. acnes B872 (eryS)", "test": "Activity of the combination erythromycin/myrtle extract on P. acnes biofilm (24-well microplate)", "conditions": "erythromycin 1000 μg/ml alone, 24 h contact on 48 h biofilm", "procedure": "as §7, §1, §2, §3, §4, §6, §5, §8, §9, §10, §11, §12"}, "[6]": {"tested_on": "P. acnes CIP 53117T (eryS)", "test": "Activity of the combination erythromycin/myrtle extract on P. acnes biofilm (24-well microplate)", "conditions": "erythromycin 1000 μg/ml alone, 24 h contact on 48 h biofilm, limit of detection 1.3 log", "procedure": "as §7, §1, §2, §3, §4, §6, §5, §8, §9, §10, §11, §12"}}, "data": [{"compound": "CC[C@H]1OC(=O)[C@H](C)[C@@H](O[C@H]2C[C@@](C)(OC)[C@@H](O)[C@H](C)O2)[C@H](C)[C@@H](O[C@@H]2O[C@H](C)C[C@H](N(C)C)[C@H]2O)[C@](C)(O)C[C@@H](C)C(=O)[C@H](C)[C@@H](O)[C@]1(C)O", "note": "[Ery, erythromycin]", "values": [{"measurement": "Bactericidal activity of erythromycin alone", "setting": "[1]", "value": "high"}, {"measurement": "Bactericidal activity", "setting": "[2]", "value": "did not have bactericidal activity"}, {"measurement": "Planktonic cells, Log (number of CFU/well)", "setting": "[3]; untreated control 3.7", "value": "3.5 Log (number of CFU/well)"}, {"measurement": "Adhered cells, Log (number of CFU/well)", "setting": "[3]; untreated control 4.5", "value": "3.5 Log (number of CFU/well)"}, {"measurement": "Planktonic cells, Log (number of CFU/well)", "setting": "[4]; untreated control 5.0", "value": "4.2 Log (number of CFU/well)"}, {"measurement": "Adhered cells, Log (number of CFU/well)", "setting": "[4]; untreated control 5.3", "value": "4.1 Log (number of CFU/well)"}, {"measurement": "Planktonic cells, Log (number of CFU/well)", "setting": "[5]; untreated control 4.0", "value": "1.3 Log (number of CFU/well)"}, {"measurement": "Adhered cells, Log (number of CFU/well)", "setting": "[5]; untreated control 4.4", "value": "4.0 Log (number of CFU/well)"}, {"measurement": "Adhered cells, Log (number of CFU/well)", "setting": "[6]; untreated control 5.1", "value": "4.3 Log (number of CFU/well)"}, {"measurement": "Planktonic cells, Log (number of CFU/well)", "setting": "[6]; untreated control 5.5", "value": "1.3 Log (number of CFU/well)"}]}]}
